Results: patent US20060099568A1, “Signals and molecular species involved in senescence” (priority 2002, published 2006)
“Also recorded” adds a separate entry of the source.

Assays:
[1] = tested on: phosphodiesterases (PDEs); test: measurement of phosphodiesterase activity in LPA-treated cells; type: cell-based, human; details: 30 μg/ml LPA
Experimental: Subconfluent presenescent (passage 8, Pa 8) and near-senescent (passage 24, Pa 24) fibroblasts were serum-starved for 2 days and treated with 30 μg/ml LPA for the indicated times. The activities of adenylyl cyclase (A) and phosphodiesterase (B) were determined in the fresh membranes and total cell lysates as described in Materials and Methods. The enzyme activities were calculated as pmol/μg/min. The data represents an average of triplicate experiments.
Phosphodiesterase (PDE) assays were performed as described previously (Jang and Juhnn, 2001). 15 μg of cytosolic proteins were incubated in 200 μl of reaction mixture containing 50 mM Tris-HCl, pH 7.4, 3 mM MgCl2, 60 pmol cAMP, 1 mM 5′-AMP for 15 min at 37° C. After the reaction was stopped by adding 2.0 M perchloric acid, the amount of remaining cAMP was determined by cAMP binding assay.

[2] = tested on: human diploid fibroblasts; test: DNA synthesis, [3H]thymidine incorporation; type: cell-based
Experimental: FIG. 5 represents reduction of growth factor-induced thymidine incorporation in near-senescent fibroblasts. […] The amount of [^3H]thymidine incorporated into DNA over 4 hrs was measured as described. The data represents an average of 3 counts in cpm. A representative experiment of the three is presented in A. Fold increase over the untreated control was calculated and plotted in B.
FIG. 18 represents changes in LPA-induced thymidine incorporation and cell proliferation in near-senescent fibroblasts versus presenescent fibroblasts. Subconfluent presenescent (passage 8, Pa 8) and near-senescent (passage 24, Pa 24) fibroblasts were serum-starved for 2 days and treated with LPA (1-70 μg/ml) for 16 hrs. The amount of [^3H]thymidine incorporated into DNA over 4 hrs was measured as described. The data represents an average of 3 counts in cpm in each independent experiments. A representative experiment of the three is presented in A. Converted fold increase over the untreated control was calculated and plotted in B.
Quiescent cells were labeled with [^3H]thymidine (0.5 μCi/ml) for 4 hrs and the […] radioactive thymidine was removed by washing with PBS. DNA was precipitated with 10% TCA and lysed in 0.5N NaOH. The radioactivity in neutralized lysates was counted in a liquid scintillation cocktail.

[3] = tested on: human diploid fibroblasts; test: growth factor-stimulated signaling events in human diploid fibroblasts; type: cell-based
Experimental: Foreskin fibroblasts were isolated as described by Boyce and Ham (1983). Cells were cultured in Dulbecco's modified Eagle's medium containing 10% fetal bovine serum and antibiotics. The primary culture contained smaller and more closely packed cells during the early stage of the culture. Cells with less than 10 passage were often considered as presenescent cells. As the cells were passaged, they became larger and they have a slower growth rate at passage 10-20. Cells from over 27 passages were completely growth-arrested and developed characteristic appearance designated previously as replicative senescence (Yeo et al., 2000a and b). In order to confirm that cells were senescent, we either examined the activity of beta-galactosidase or stained with X-gal, a membrane permeable substrate of the enzyme, which produces a blue insoluble product inside of the cells. The number of cells stained with X-gal increased with age and most of cells from passage 27-28 were stained. Cultures of over 23-28 passages have also shown the cessation of cell growth and senescence-like morphological changes, but only 70-80% of cells were stained with X-gal. These were termed “near-senescent”. Although the near-senescent cultures were not completely homogeneous, we compared the changes in these cultures to those in presenescent cultures of passage 6-10. In order to determine the growth factor-stimulated signaling events, cells were grown for 1-2 days to 60-70% sub-confluency in the culture medium, and then serum-starved to become quiescent by incubating with serum free medium (SFM) for 2 days. The quiescent cells were treated with various agonists, as described in the figure legends. To label cells, radioactive chemicals were added during the incubation with SFM.
Primary human diploid fibroblasts, isolated from newborn foreskins, were used to study the mechanism of reduced response to growth factor stimulation with aging. These cells were maintained and passaged as described previously (Yeo et al., 2000a). […] Compared to their presenescent counterparts, the senescent and near-senescent cells were larger and grew to lower density, as has been observed in other cell systems. Here the present inventors report upon the differential changes in the signaling events evoked by platelet-derived growth factor (PDGF) and lysophosphatidic acid (LPA). PDGF elicits signaling events over a concentration range of 10-100 ng/ml, whereas LPA stimulates the hydrolysis of phospholipids, Ca^2+ mobilization, and actin polymerization over a concentration range of 0.1-10 μg/ml in human diploid fibroblasts. In order to compare their cellular responses, we treated presenescent and senescent (or near-senescent) cells with PDGF and LPA at a maximally responsive dose of 50 ng/ml and 1 μg/ml, respectively.

In the case of lysophosphatidic acid [LPA], the PDE activity ([1]; near-senescent cells) is reported as “reduced”, the PDE activity ([1]; presenescent cells) is reported as “increased” and the “fold increase of [3H]thymidine incorporation over untreated control, near-senescent vs presenescent” value ([2]; 50-70 μg/ml LPA) is reported as “slightly higher”. For the same substance, the “agonist-induced DNA synthesis ([3H]thymidine incorporation) in near-senescent cells vs presenescent” value ([2]; near-senescent cells (passage 24)) was “reduced but less so than PDGF; also recorded: reduced”, the “concentration at which increase of [3H]thymidine incorporation is apparent” value ([2]; presenescent fibroblasts) was 10 µg/mL and the “concentration at which increase of [3H]thymidine incorporation is maximal” value ([2]; presenescent fibroblasts) was 50 to 70 µg/mL. The “concentration range stimulating hydrolysis of phospholipids, Ca2+ mobilization and actin polymerization” value ([3]; human diploid fibroblasts) was 0.1 to 10 µg/mL and the maximally responsive dose ([3]; presenescent and senescent (or near-senescent) cells) was 1 µg/mL.
